Data reported in paper PMC8063472, “Pharmacokinetics of five phthalides in volatile oil of Ligusticum sinense Oliv.cv. Chaxiong, and comparison study on physicochemistry and pharmacokinetics after being formulated into solid dispersion and inclusion compound” (BMC Complementary Medicine and Therapies, 2021).
Read-outs that look alike come from different tables or passages of the source.

Key:
[1] = Pharmacokinetic study in rats (plasma LC-MS/MS) after iv or oral VOC, oral VOC-P188 or oral VOC-β-CD; assay type: in vivo, Sprague Dawley rats; conditions: for AUC(0-t) / MRT last / Tmax / half-life / Cmax / bioavailability: male, Sprague-Dawley, rat, plasma; for MRT last: read-out: MRT0-t; for half-life: read-out: t1/2β (converted)
Procedure: The intravenous injection solution was prepared by dissolving 0.15 g of VOC in 25 ml water containing 3 ml 10% Tween-80 as solubilizer. The oral solution was prepared by dissolving 0.35 g of VOC in 25 ml normal saline containing 3 ml 10% Tween-80 as solubilizer. The VOC-P188 solution was prepared by mixing VOC-P188 5 g in 25 ml water with magnetic stirring apparatus. The VOC-β-CD solution was prepared by mixing VOC-β-CD 3.5 g in 25 ml water with magnetic stirring apparatus.
Twenty-four male SD rats (220 ~ 250 g) were randomly divided into four groups, 6 in each group. After fasting for 12 h before administration, the rats in group 1 were given VOC by tail vein injection at a dose of 30 mg/Kg, the rats at second group were oral administration of VOC solution, the dosage was 120 mg/Kg based on the mass of VOC. The rats at groups 3 and 4 were given VOC-P188 and VOC-β-CD, respectively.
Blood samples (0.3 ml) were collected from the eyes at 0.08, 0.17, 0.33, 0.5, 1, 1.5, 2, 4, 6, 8, 12 and 24 h after administration, and they were immediately transferred into a heparinized Eppendorf (EP) tube. The blood samples were then centrifuged at 13,000 r/min for 10 min. The plasma samples were stored at − 80 °C for later analysis.
The thawed plasma sample (0.1 ml) was transferred to another EP tube and 20 μl of DL, 50 μl of 2% formic acid and 500 μl of methanol were added. The mixture was vortexed for 2 min, and centrifuged at 13000 r/min for 10 min. The supernatant was transferred into a clean EP tube, and evaporated to dryness under a stream of nitrogen at 40 °C. The residue was dissolved in 100 μl of methanol. The supernatant was injected into the HPLC system.
An HPLC system consisting of a solvent-delivery system LC-30 AD, an autosampler SIL-30 AC, a column oven CTO-30 AC, a solvent degasser DGU-20A3, and a controller CBM-20A from […] was used in the study. Separation was conducted using a Shim-pack GIST C18-AQ HP column (2.1 mm × 100 mm, 3 μm). The column oven was maintained at 35 °C. The mobile phase was 0.1% formic acid in water as mobile phase A and acetonitrile as mobile phase B. The linear gradient elution program was set according to preliminary tests: 45–60% B, 0–2 min; 60–65% B, 2–6 min; 65–95% B, 6–7 min; 95–45% B, 7–9 min and 45% B, 9–10 min, with the flow rate kept at 0.3 ml/min. The injection volume was set at 2 μl.
The MS analysis was performed on a 4500 QTRAP™ system from Applied Biosystems (AB Sciex) equipped with Turbo V sources and Turbo Ion Spray™ (TIS) interface. Electrospray ionization was performed in positive mode. Ion source: electrospray ion source (ESI source); detection method: multiple reaction monitoring (MRM); ion source temperature: 500 °C; desolvent gas temperature: 550 °C; desolvent gas flow rate: 800 l/h. The detection ion pair, retention time, declustering voltage and collision energy of each index component and internal standard were shown in Table 2.
The plasma SA, NBP, NOL, ZL and BP concentrations were evaluated using the equation from the standard curves that were run with each batch of samples. The plasma concentration-time data were analyzed with the Drug and Statistics 2.0 software package to determine the pharmacokinetic parameters. The observed Cmax value was obtained from the observed data and the observed AUC0 → t value was calculated using the trapezoidal rule. The absolute bioavailability of VOC and the relative bioavailability of VOC-P188 and VOC-β-CD were calculated, the formula for calculating absolute bioavailability (F1) and relative bioavailability (F2): F1=AUCpo×Div/AUCiv×Dpo×100% […]
Where AUC is the area under the temporal curve of blood drug concentration (μg/l*h), D is administration dosage (mg/kg); the subscripts iv and po are injection and oral administration, respectively; the subscript R is reference drug (VOC); the subscript T is solid dispersion or inclusion compound.

[2] = Stability test of VOC-P188 and VOC-β-CD (temperature, illumination); assay type: physicochemical
[3] = In vitro dissolution, paddle method, pH 5.8 phosphate buffer; assay type: physicochemical
Procedure: Dissolution studies were performed according to the USP XXI method 2 (paddle method) at 37 ± 0.5 °C at 50 rpm. 900 ml of dissolution medium were used as standard volume. Dissolution samples (1 mL) were withdrawn at the specified times of 15, 30, 45, 60, 90, 120 min from Dissolution cups, and 1 ml of dissolution medium was replenished in the same time. Samples were filtered through a 0.45 μm nylon disc filter and were measured absorbance at 230 nm by HPLC [11].

[4] = design: method as in PMID 18039808; conditions: cited from earlier work
[5] = VOC iv 30 mg/kg, rat plasma, n = 6
[6] = VOC po 120 mg/kg, rat plasma, n = 6
[7] = VOC-P188 solid dispersion po vs VOC po, rats
[8] = VOC-P188 solid dispersion po, rat plasma, n = 6
[9] = VOC-β-CD inclusion compound po vs VOC po, rats
[10] = VOC-β-CD inclusion compound po, rat plasma, n = 6
[11] = iv, 30 mg/kg, VOC iv 30 mg/kg, rat plasma, n = 6
[12] = iv, 30 mg/kg, VOC iv 30 mg/kg, rat plasma, n = 6, read-out: Tmax
[13] = iv, 30 mg/kg, VOC iv (tail vein) 30 mg/kg, rat plasma, n = 6
[14] = po, 120 mg/kg, VOC po 120 mg/kg, rat plasma, n = 6
[15] = po, 120 mg/kg, VOC po 120 mg/kg, rat plasma, n = 6, read-out: Tmax
[16] = po, 120 mg/kg, VOC po vs VOC iv, rats, read-out: F1 (absolute bioavailability)
[17] = po, VOC-P188 and VOC-β-CD po, rats, read-out: bioavailability in the two preparations
[18] = po, VOC-P188 solid dispersion po, rat plasma, n = 6
[19] = po, VOC-P188 solid dispersion po, rat plasma, n = 6, read-out: Tmax
[20] = po, VOC-β-CD inclusion compound po, rat plasma, n = 6
[21] = po, VOC-β-CD inclusion compound po, rat plasma, n = 6, read-out: Tmax

CCCC[C@@H]1OC(=O)c2ccccc21 [NBP, N-butylphthalide, reference compound]
t1/2α [1, 5]: 0.06 ± 0.04 h
t1/2α [1, 6]: 0.26 ± 0.10 h
F2 (relative bioavailability) [1, 7]: 197.67%
t1/2α [1, 8]: 2.82 ± 1.55^** h
F2 (relative bioavailability) [1, 9]: 198.39%
t1/2α [1, 10]: 3.95 ± 1.96^** h
AUC(0-t) [1, 11]: 54.6 ± 16.5 ng·h/mL
MRT last [1, 11]: 32.4 ± 13.2 min
Tmax [1, 12]: 4.98 min
half-life [1, 11]: 15.6 ± 9 min
Cmax [1, 13]: 196 ± 64.5 ng/mL
AUC(0-t) [1, 14]: 36.1 ± 7.58 ng·h/mL
Cmax [1, 14]: 25.9 ± 8.3 ng/mL
MRT last [1, 14]: 162 ± 28.2 min
Tmax [1, 15]: 28.2 ± 4.2 min
half-life [1, 14]: 39 ± 44.4 min
bioavailability [1, 16]: < 25%
Tmax ([1]; po, 120 mg/kg, after oral administration of VOC, rats, read-out: Tmax (time of peak concentration)): < 30 min
bioavailability [1, 17]: < 50%
AUC(0-t) [1, 18]: 72.7 ± 9.8 ng·h/mL
Cmax [1, 18]: 23.5 ± 1.59 ng/mL
MRT last [1, 18]: 244 ± 27.6 min
Tmax [1, 19]: 19.2 ± 12 min
half-life [1, 18]: 188 ± 60.6 min
AUC(0-t) [1, 20]: 76.1 ± 24.6 ng·h/mL
Cmax [1, 20]: 22.4 ± 5.56 ng/mL
MRT last [1, 20]: 317 ± 62.4 min
Tmax [1, 21]: 49.8 ± 15.6 min
half-life [1, 20]: 263 ± 109 min

CCC/C=C1\OC(=O)C2=C1CCC=C2 [ZL, Z-ligustilide]
t1/2α [1, 5]: 0.04 ± 0.04 h
t1/2α [1, 6]: 0.82 ± 0.51 h
F2 (relative bioavailability) [1, 7]: 163.35%
t1/2α [1, 8]: 4.40 ± 4.10^* h
F2 (relative bioavailability) [1, 9]: 224.54%
t1/2α [1, 10]: 4.72 ± 1.92^* h
AUC(0-t) [1, 11]: 1240 ± 435 ng·h/mL
MRT last [1, 11]: 27 ± 6 min
Tmax [1, 12]: 4.98 min
half-life [1, 11]: 33 ± 39.6 min
Cmax [1, 13]: 4530 ± 1450 ng/mL
AUC(0-t) [1, 14]: 504 ± 53.3 ng·h/mL
Cmax [1, 14]: 214 ± 76 ng/mL
MRT last [1, 14]: 236 ± 32.4 min
Tmax [1, 15]: 13.2 ± 5.4 min
half-life [1, 14]: 329 ± 157 min
bioavailability [1, 17]: < 50%
AUC(0-t) [1, 18]: 801 ± 199 ng·h/mL
Cmax [1, 18]: 320 ± 286 ng/mL
MRT last [1, 18]: 357 ± 29.4 min
Tmax [1, 19]: 29.4 ± 25.2 min
half-life [1, 18]: 535 ± 315 min
AUC(0-t) [1, 20]: 883 ± 211 ng·h/mL
Cmax [1, 20]: 145 ± 24.8 ng/mL
MRT last [1, 20]: 439 ± 19.8 min
Tmax [1, 21]: 24 ± 10.2 min
half-life [1, 20]: 358 ± 174 min
content decreased by ([2]; in VOC-P188, 60 °C for 10 days): 38.9%
content decreased by ([2]; in VOC-β-CD, 60 °C for 10 days): 20.3%
solubility in pH 5.8 PBS [3]: poor solubility
Oral bioavailability [4]: 2.6%

CCCC[C@@H]1OC(=O)C2=CCCC[C@H]21 [NOL, Neocnidilide]
t1/2α [1, 5]: 0.04 ± 0.04 h
t1/2α [1, 6]: 0.46 ± 0.67 h
F2 (relative bioavailability) [1, 7]: 258.18%
t1/2α [1, 8]: 4.21 ± 4.29^* h
F2 (relative bioavailability) [1, 9]: 218.01%
t1/2α [1, 10]: 3.21 ± 2.44 h
AUC(0-t) [1, 11]: 505 ± 152 ng·h/mL
MRT last [1, 11]: 47.4 ± 10.2 min
Tmax [1, 12]: 4.98 min
half-life [1, 11]: 18 ± 6.6 min
Cmax [1, 13]: 1380 ± 335 ng/mL
AUC(0-t) [1, 14]: 442 ± 45.2 ng·h/mL
Cmax [1, 14]: 223 ± 71.3 ng/mL
MRT last [1, 14]: 205 ± 34.2 min
Tmax [1, 15]: 10.8 ± 7.2 min
half-life [1, 14]: 186 ± 131 min
bioavailability [1, 16]: < 25%
bioavailability [1, 17]: < 50%
AUC(0-t) [1, 18]: 1140 ± 63.9 ng·h/mL
Cmax [1, 18]: 244 ± 131 ng/mL
MRT last [1, 18]: 457 ± 34.2 min
Tmax [1, 19]: 25.2 ± 27 min
half-life [1, 18]: 530 ± 110 min
AUC(0-t) [1, 20]: 945 ± 85 ng·h/mL
Cmax [1, 20]: 134 ± 24.3 ng/mL
MRT last [1, 20]: 490 ± 33 min
Tmax [1, 21]: 40.2 ± 15.6 min
half-life [1, 20]: 586 ± 163 min
